This note sets out measurements from BindingDB's records for doi:10.1016/j.bmcl.2020.127669 (Janssen Research & Development, 2021).

This assay has as its target 5-hydroxytryptamine receptor 2B (Homo sapiens, UniProt P41595). The assay is described as follows: Displacement of […] from human 5-HT2B receptor by competitive radioligand binding assay. (In a radioligand displacement assay an active substance lowers the binding of a labelled ligand.)

5-hydroxytryptamine receptor 2B, sequence (P41595 whole entry): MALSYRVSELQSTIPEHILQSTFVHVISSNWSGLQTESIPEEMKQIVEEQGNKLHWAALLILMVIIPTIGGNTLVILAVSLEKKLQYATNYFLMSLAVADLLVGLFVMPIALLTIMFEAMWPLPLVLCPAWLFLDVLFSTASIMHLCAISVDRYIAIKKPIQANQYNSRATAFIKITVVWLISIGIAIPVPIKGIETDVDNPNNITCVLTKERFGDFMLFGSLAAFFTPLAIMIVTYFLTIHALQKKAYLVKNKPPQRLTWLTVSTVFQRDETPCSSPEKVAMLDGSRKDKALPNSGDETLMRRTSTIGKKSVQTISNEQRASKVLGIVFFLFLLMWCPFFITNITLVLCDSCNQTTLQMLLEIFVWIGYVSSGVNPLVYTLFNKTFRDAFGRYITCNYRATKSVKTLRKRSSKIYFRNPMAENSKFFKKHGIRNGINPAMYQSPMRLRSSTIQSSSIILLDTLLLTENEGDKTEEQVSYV

`CC(C)n1nc2c(c1-c1ccc(F)cc1)CCNCC2` displayed a Ki of 25 nM.

One may read the Ki as a measure of affinity in units of concentration, obtained from inhibition or displacement.
